Here are results for 24 molecules from patent publication US7452887B2, “Quinoline- and isoquinoline-based compounds exhibiting ATP-utilizing enzyme inhibitory activity, and compositions, and uses thereof” (Amphora Discovery Corporation, priority 2004, dated 2008).

For one assay, the target named is MAPKAPK2 (Homo sapiens, UniProt P49137). Kind of assay: HTS ATP-utilizing enzyme assay, off-chip mobility-shift (Caliper HTS 250). Format: biochemical. Particulars: test compound 10 μM, kinase listed = active (greater than six-sigma from the mean activity of inactive compounds). In outline:
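Phosphorylation of a peptide substrate was quantified by Caliper mobility-shift separation of substrate and product after 2.5 h at 20-22 °C, with compounds tested at 10 μM. Inhibition was normalized to EDTA-quenched (100%) and DMSO (0%) controls; six-sigma thresholds flagged actives.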

Another assay concerns the target T1, PRAK (Homo sapiens, UniProt Q8IW41).
T1 sequence (Q8IW41 1-473): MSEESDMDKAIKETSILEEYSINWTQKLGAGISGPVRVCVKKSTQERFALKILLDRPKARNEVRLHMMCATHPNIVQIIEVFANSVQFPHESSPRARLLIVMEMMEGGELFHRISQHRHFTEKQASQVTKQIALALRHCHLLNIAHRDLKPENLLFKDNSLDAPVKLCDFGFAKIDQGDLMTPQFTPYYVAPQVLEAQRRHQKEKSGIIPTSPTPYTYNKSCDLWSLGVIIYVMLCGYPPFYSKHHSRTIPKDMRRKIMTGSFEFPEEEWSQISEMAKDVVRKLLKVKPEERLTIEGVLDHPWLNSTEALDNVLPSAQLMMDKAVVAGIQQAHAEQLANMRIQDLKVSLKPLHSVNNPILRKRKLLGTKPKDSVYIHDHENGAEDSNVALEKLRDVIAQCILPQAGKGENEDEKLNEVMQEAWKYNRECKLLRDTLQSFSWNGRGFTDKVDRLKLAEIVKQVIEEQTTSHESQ
The description is as above. Format: biochemical. As to conditions: test compound 10 μM, kinase listed = active (greater than six-sigma from the mean activity of inactive compounds). An excerpt:
The following procedures describe the reagent and plate preparation for a HTS of an ATP-utilizing enzyme, such as a protein kinase, run in an off-chip mobility-shift assay format. The following provides an HTS protocol for running a protein kinase HTS screen on a Caliper HTS 250 microfluidics system. The following parameters are dependent on the protein kinase used and can be determined by one skilled in the art as part of a typical assay development process. For example, the peptide substrate used can be identified from the current literature, by screening a peptide library of potential protein kinase substrates, or by other applicable means accepted in the field.
The following table provides typical screen assay parameters appropriate for a Caliper HTS 250 microfluidics system.
The reagents and buffers listed in the following table are generally applicable for developing and running an HTS screen on a human protein kinase using the Caliper HTS 250 system.
The following reagents were prepared using the previously described buffers.
A 2× Master Buffer solution was prepared by combining 200 mL of 1 M HEPES, pH 7.5, 2 mL of 10% Triton X-100, 20 mL of 10% BSA, and 778 mL of H2O.
A 2.5× Substrate Buffer solution was prepared by combining 177.408 mL of 2× Master Buffer, 0.887 mL of 1 mM peptide-X, and 176.521 mL of H2O.
A 1.55× Termination Buffer solution was prepared by combining 762.05 mL of 2× Master Buffer, 95.1 mL of 0.5 M EDTA, and 666.94 mL of H2O.
A TCB Buffer solution was prepared by combining 125 mL of 2× Master Buffer, 10 mL of 0.5 M EDTA, 6.25 mL of 4% coating reagent, 1.01 mL of 100% DMSO, and 107.74 mL H2O.
A Dye Trough solution was prepared by combining 0.5 μL of peptide-X, and 2,999.5 μL of IX Master Buffer.
A 1.06× Assay Buffer solution was prepared by combining 205.15 mL of 2× Master Buffer, and 181.92 mL of H2O.
Assays to determine the kinase inhibitory activity of compounds of the present disclosure were performed using a Caliper HTS 250 microfluidics device, Greiner U-bottom assay plates, a Multidrop for transfer of reagents, and Biomek FX (AMNCBM03) software. Initially, 2.4 μL of a 1 mM solution of a test compound in 100% DMSO was added to a well of the Greiner U-bottom plate. A single Greiner U-bottom plate having 24×16 wells could include multiple test compounds. Next, […] of 1.06× Assay Buffer was added to each well of the assay plate. Using the Biomek FX, 10 μL of 0.5 M EDTA was added by the span-8 to wells, indicated as 100% Control and 2.4 μL of 100% DMSO was added by the span-8 to wells, indicated as 0% Control. Using the Multidrop, 10 μL of 2.5× Enzyme Buffer, followed by 10 μL of 2.5× Substrate Buffer was added to each well of the assay plate. The total reaction volume in each well was 25 μL, and the concentration of the test compound was 10 μM. The assay plate was incubated for 2.5 hrs at 20° C. to 22° C. After the incubation period, using the Multidrop, 45 μL of 1.55× Termination Buffer was added to each well of the assay plate to stop the reaction. The inhibition of the ATP-utilizing enzyme, such as a particular protein kinase, was determined by measuring the ratio of the peptide substrate to phosphorylated product for each well of the assay plate using the Caliper HTS 250 system.
The use of six-sigma statistical limits represents a conservative method for declaring potential hits among targets. The six-sigma activity, as well as the mean population activity, can be different for each target enzyme. This method has an expected false positive rate, from an in-control measurement process, of one in one million.

Chain of MAPKAPK2 (P49137 whole entry): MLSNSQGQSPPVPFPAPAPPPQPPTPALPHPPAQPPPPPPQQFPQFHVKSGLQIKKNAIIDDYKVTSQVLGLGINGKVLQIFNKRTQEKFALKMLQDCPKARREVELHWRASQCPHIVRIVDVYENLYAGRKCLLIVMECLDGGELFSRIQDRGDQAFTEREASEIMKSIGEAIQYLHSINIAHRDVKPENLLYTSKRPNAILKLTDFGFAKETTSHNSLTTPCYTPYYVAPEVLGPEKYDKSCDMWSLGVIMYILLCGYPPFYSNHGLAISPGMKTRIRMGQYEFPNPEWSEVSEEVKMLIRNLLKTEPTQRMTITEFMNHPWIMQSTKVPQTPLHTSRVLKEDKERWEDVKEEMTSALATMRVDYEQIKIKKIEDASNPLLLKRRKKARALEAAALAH

In the case of `CC(=O)c1ccc(-c2ccc3nccc(Nc4ccc(N5CCN(C)CC5)cc4)c3c2)s1` [1-(5-(4-(4-(4-methylpiperazin-1-yl)phenylamino)quinolin-6-yl)thiophen-2-yl)ethanone], the Activity result was “MAPKAPK2” on MAPKAPK2 and “PRAK” at PRAK.

Consider `N#Cc1ccc(-c2ccc3nccc(Nc4ccc(N5CCN(CC(=O)O)CC5)cc4)c3c2)cc1` [2-(4-(4-(6-(4-cyanophenyl)quinolin-4-ylamino)phenyl)piperazin-1-yl)acetic acid], for which the Activity entry is given as “MAPKAPK2” at MAPKAPK2 and “PRAK” on PRAK.

`OCCCN1CCN(c2ccc(Nc3ccnc4ccc(-c5ccccc5)cc34)cc2)CC1` [3-(4-(4-(6-phenylquinolin-4-ylamino)phenyl)piperazin-1-yl)propan-1-ol]: the Activity entry at MAPKAPK2 is given as “MAPKAPK2”; on PRAK, “PRAK”.

Regarding `N#CCCN1CCN(c2ccc(Nc3ccnc4ccc(-c5ccccc5)cc34)cc2)CC1` [3-(4-(4-(6-phenylquinolin-4-ylamino)phenyl)piperazin-1-yl)propanenitrile], the Activity entry at MAPKAPK2 is given as “MAPKAPK2”; at PRAK, “PRAK”.

Take `CN(C)C1CCN(c2ccc(Nc3ccnc4ccc(-c5ccc(C#N)cc5)cc34)cc2)C1` (centres unmarked) [4-(4-(4-(3-(dimethylamino)pyrrolidin-1-yl)phenylamino)quinolin-6-yl)benzonitrile]: at PRAK, the Activity entry is “PRAK”.

Turning to `N#CCCN1CCN(c2ccc(Nc3ccnc4ccc(-c5ccc(C#N)cc5)cc34)cc2)CC1` [4-(4-(4-(4-(2-cyanoethyl)piperazin-1-yl)phenylamino)quinolin-6-yl)benzonitrile], the Activity result on MAPKAPK2 was “MAPKAPK2”; at PRAK, “PRAK”.

As for `CCN1CCN(c2ccc(Nc3ccnc4ccc(-c5ccc(C#N)cc5)cc34)cc2)CC1` [4-(4-(4-(4-ethylpiperazin-1-yl)phenylamino)quinolin-6-yl)benzonitrile], the Activity result at MAPKAPK2 is “MAPKAPK2”; on PRAK, “PRAK”.

As for `CCCN1CCN(c2ccc(Nc3ccnc4ccc(-c5ccc(C#N)cc5)cc34)cc2)CC1` [4-(4-(4-(4-propylpiperazin-1-yl)phenylamino)quinolin-6-yl)benzonitrile], the Activity result at MAPKAPK2 was “MAPKAPK2”; on PRAK, “PRAK”.

As for `N#Cc1ccc(-c2ccc3nccc(Nc4ccc(N5CCNCC5)cc4)c3c2)cc1` [4-(4-(4-(piperazin-1-yl)phenylamino)quinolin-6-yl)benzonitrile], the Activity entry is “MAPKAPK2” on MAPKAPK2 and “PRAK” at PRAK.

As for `COc1ccc(OC)c(-c2ccc3nccc(Nc4ccc(N5CCN(C)CC5)cc4)c3c2)c1` [6-(2,5-dimethoxyphenyl)-N-(4-(4-methylpiperazin-1-yl)phenyl)quinolin-4-amine], the Activity result on MAPKAPK2 was “MAPKAPK2”; at PRAK, “PRAK”.

`CN1CCN(c2ccc(Nc3ccnc4ccc(-c5c(F)cccc5F)cc34)cc2)CC1` [6-(2,6-difluorophenyl)-N-(4-(4-methylpiperazin-1-yl)phenyl)quinolin-4-amine]: the Activity entry is listed as “MAPKAPK2” at MAPKAPK2 and “PRAK” on PRAK.

For `CN1CCN(c2ccc(Nc3ccnc4ccc(-c5ccccc5F)cc34)cc2)CC1` [6-(2-fluorophenyl)-N-(4-(4-methylpiperazin-1-yl)phenyl)quinolin-4-amine], the Activity result is recorded as “MAPKAPK2” at MAPKAPK2 and “PRAK” on PRAK.

For `CN1CCN(c2ccc(Nc3ccnc4ccc(-c5ccc(F)c(F)c5)cc34)cc2)CC1` [6-(3,4-difluorophenyl)-N-(4-(4-methylpiperazin-1-yl)phenyl)quinolin-4-amine], the Activity entry at MAPKAPK2 is on record as “MAPKAPK2”; on PRAK, “PRAK”.

For the molecule `CN1CCN(c2ccc(Nc3ccnc4ccc(-c5cc(F)cc(F)c5)cc34)cc2)CC1` [6-(3,5-difluorophenyl)-N-(4-(4-methylpiperazin-1-yl)phenyl)quinolin-4-amine], the Activity result at MAPKAPK2 is “MAPKAPK2”; on PRAK, “PRAK”.

For the molecule `CN1CCN(c2ccc(Nc3ccnc4ccc(-c5cccc(F)c5)cc34)cc2)CC1` [6-(3-fluorophenyl)-N-(4-(4-methylpiperazin-1-yl)phenyl)quinolin-4-amine], the Activity result on MAPKAPK2 was “MAPKAPK2”; on PRAK, “PRAK”.

As for `CC(C)c1cccc(-c2ccc3nccc(Nc4ccc(N5CCN(C)CC5)cc4)c3c2)c1` [6-(3-isopropylphenyl)-N-(4-(4-methylpiperazin-1-yl)phenyl)quinolin-4-amine], the values for the Activity entry at MAPKAPK2 and at PRAK were “MAPKAPK2” and “PRAK”, respectively.

Consider `CCCCc1ccc(-c2ccc3nccc(Nc4ccc(N5CCN(C)CC5)cc4)c3c2)cc1` [6-(4-butylphenyl)-N-(4-(4-methylpiperazin-1-yl)phenyl)quinolin-4-amine], for which the Activity result on MAPKAPK2 is recorded as “MAPKAPK2”; on PRAK, “PRAK”.

With `CN1CCN(c2ccc(Nc3ccnc4ccc(-c5ccc(Cl)cc5)cc34)cc2)CC1` [6-(4-chlorophenyl)-N-(4-(4-methylpiperazin-1-yl)phenyl)quinolin-4-amine], the Activity result at MAPKAPK2 is reported as “MAPKAPK2”; on PRAK, “PRAK”.

In the case of `CCOc1ccc(-c2ccc3nccc(Nc4ccc(N5CCN(C)CC5)cc4)c3c2)cc1` [6-(4-ethoxyphenyl)-N-(4-(4-methylpiperazin-1-yl)phenyl)quinolin-4-amine], the Activity entry on MAPKAPK2 was “MAPKAPK2”; on PRAK, “PRAK”.

Regarding `Cc1cc(F)ccc1-c1ccc2nccc(Nc3ccc(N4CCN(C)CC4)cc3)c2c1` [6-(4-fluoro-2-methylphenyl)-N-(4-(4-methylpiperazin-1-yl)phenyl)quinolin-4-amine], the Activity entry on MAPKAPK2 is recorded as “MAPKAPK2”; on PRAK it was “PRAK”.

Turning to `COc1ccc(F)cc1-c1ccc2nccc(Nc3ccc(N4CCN(C)CC4)cc3)c2c1` [6-(5-fluoro-2-methoxyphenyl)-N-(4-(4-methylpiperazin-1-yl)phenyl)quinolin-4-amine], the Activity entry at MAPKAPK2 is given as “MAPKAPK2”; at PRAK it was “PRAK”.

As to `CN1CCN(c2ccc(Nc3ccnc4ccc(-c5cccc(C(F)(F)F)c5)cc34)cc2)CC1` [N-(4-(4-methylpiperazin-1-yl)phenyl)-6-(3-(trifluoromethyl)phenyl)quinolin-4-amine], the Activity entry at PRAK is “PRAK”.

For the molecule `CSc1ccc(-c2ccc3nccc(Nc4ccc(N5CCN(C)CC5)cc4)c3c2)cc1` [N-(4-(4-methylpiperazin-1-yl)phenyl)-6-(4-(methylthio)phenyl)quinolin-4-amine], the Activity entry at PRAK is on record as “PRAK”.

As to `CN1CCN(c2ccc(Nc3ccnc4ccc(-c5ccccc5)cc34)cc2)CC1` [N-(4-(4-methylpiperazin-1-yl)phenyl)-6-phenylquinolin-4-amine], the Activity entry on PRAK is recorded as “PRAK”.
